± gives the expanded uncertainty stated by the source.
Assay: molar heat capacity at constant pressure
Settings: 101.33 kPa, Crystal, Vacuum adiabatic calorimetry

O=C([O-])c1ccccc1.[Na+] [sodium benzoate]
Settings | molar heat capacity at constant pressure [J/K/mol]
78.86 K | 74.66 ± 0.47
80.43 K | 75.06 ± 0.47
82.62 K | 76.58 ± 0.48
84.79 K | 77.94 ± 0.49
87.06 K | 79 ± 0.49
89.08 K | 80.34 ± 0.5
91.16 K | 81.6 ± 0.53
93.24 K | 82.94 ± 0.54
95.32 K | 83.73 ± 0.54
97.26 K | 84.83 ± 0.55
99.2 K | 86.09 ± 0.56
101.14 K | 87.27 ± 0.56
103.01 K | 88.2 ± 0.57
104.89 K | 89.11 ± 0.57
106.3 K | 89.81 ± 0.58
107.72 K | 90.52 ± 0.58
109.44 K | 91.63 ± 0.59
111.32 K | 92.54 ± 0.59
113.05 K | 93.55 ± 0.6
114.93 K | 94.67 ± 0.6
116.5 K | 95.37 ± 0.61
118.38 K | 95.98 ± 0.61
120.05 K | 97.43 ± 0.62
122.61 K | 98.9 ± 0.63
126.31 K | 100.57 ± 0.64
129.87 K | 102.54 ± 0.65
133.42 K | 104.11 ± 0.66
137.05 K | 105.58 ± 0.67
140.25 K | 107.64 ± 0.68
143.52 K | 109.31 ± 0.69
146.93 K | 111.38 ± 0.7
150.2 K | 112.85 ± 0.71
153.61 K | 114.42 ± 0.72
156.74 K | 115.8 ± 0.73
159.94 K | 117.1 ± 0.74
163.08 K | 118.62 ± 0.75
166.41 K | 120.71 ± 0.76
169.54 K | 122.29 ± 0.77
172.67 K | 124.15 ± 0.78
175.8 K | 125.53 ± 0.79
178.78 K | 127.2 ± 0.8
182.05 K | 128.48 ± 0.81
186.18 K | 130.74 ± 0.82
190.73 K | 133.09 ± 0.83
194.71 K | 134.96 ± 0.84
198.69 K | 136.73 ± 0.85
202.67 K | 138.89 ± 0.87
206.65 K | 140.95 ± 0.88
210.78 K | 143.02 ± 0.89
214.62 K | 144.69 ± 0.9
218.6 K | 147.24 ± 0.92
222.72 K | 148.91 ± 0.93
226.56 K | 150.78 ± 0.94
230.54 K | 152.55 ± 0.95
234.67 K | 154.3 ± 0.96
238.65 K | 156.48 ± 0.97
242.63 K | 158.35 ± 0.98
247.75 K | 160.9 ± 1
252.79 K | 162.99 ± 1
256.71 K | 164.6 ± 1
260.69 K | 166.7 ± 1
264.71 K | 168.34 ± 1
268.8 K | 170.63 ± 1.1
272.92 K | 172.89 ± 1.1
276.9 K | 174.76 ± 1.1
280.74 K | 176.43 ± 1.1
284.72 K | 178.39 ± 1.1
288.7 K | 179.87 ± 1.1
292.69 K | 181.54 ± 1.1
295.1 K | 182.91 ± 1.1
298.37 K | 184.58 ± 1.1
301.36 K | 185.56 ± 1.1
304.35 K | 186.94 ± 1.1
307.33 K | 188.32 ± 1.2
310.32 K | 189.49 ± 1.2
313.3 K | 190.87 ± 1.2
316.29 K | 191.75 ± 1.2
319.28 K | 192.93 ± 1.2
322.12 K | 194.21 ± 1.2
325.11 K | 195.49 ± 1.2
327.81 K | 196.77 ± 1.2
329.51 K | 197.36 ± 1.2
332.93 K | 198.63 ± 1.2
335.35 K | 199.91 ± 1.2
338.05 K | 200.79 ± 1.2
340.89 K | 202.17 ± 1.2
343.88 K | 202.96 ± 1.2
346.72 K | 204.33 ± 1.3
349.42 K | 205.02 ± 1.3
352.27 K | 206.2 ± 1.3
355.25 K | 207.28 ± 1.3
358.1 K | 208.56 ± 1.3
360.85 K | 209.38 ± 1.3
363.79 K | 210.82 ± 1.3
366.63 K | 212.19 ± 1.3
369.62 K | 213.57 ± 1.3
372.46 K | 214.53 ± 1.3
375.3 K | 215.93 ± 1.3
378.15 K | 217.2 ± 1.3
380.99 K | 218.09 ± 1.3
383.98 K | 219.66 ± 1.4
386.68 K | 220.45 ± 1.4
389.52 K | 221.82 ± 1.4
392.37 K | 223.2 ± 1.4
395.21 K | 224.18 ± 1.4
397.91 K | 225.75 ± 1.4
